melting point	Structure (SMILES)
70 to 72 °C	CC(C)(C)OC(=O)CNc1ccc2c(c1)OCO2
51 to 53 °C	O=Cc1cc(Cl)cc(Cl)c1OC(F)F
123 to 125 °C	O=C(CCl)NCc1ccccc1S(=O)(=O)N1CCOCC1
220 to 222 °C	CNc1ncccc1C(=O)O
213 to 215 °C	CN(C)c1ccc(/C=C/C(=O)c2ccc([N+](=O)[O-])cc2)cc1
102 to 104 °C	O=C(O)c1cccc(Oc2nccs2)c1
189 to 191 °C	O=C(O)c1sccc1S(=O)(=O)N1CCOCC1
188 to 190 °C	Nn1c(S)nnc1-c1ccccc1Br
129 to 131 °C	NCCCN1C(=O)NC2(CCCC2)C1=O
107 to 109 °C	O=C(O)C1CCN(C(=O)CCc2ccccc2)CC1
56 to 58 °C	Clc1nnc(Cl)c(Cl)n1
62 to 65 °C	O=C(Nc1ccccc1)OCC(F)(F)F
54 to 56 °C	Nc1ccc(F)cc1-c1ccc(Cl)cc1
173 to 175 °C	O=C1NC(=O)C(c2ccc(F)c(Br)c2)N1 (stereo not given)
111 to 113 °C	COc1cc2c(cc1OC)C(c1ccccc1)NCC2 (stereo not given)
86 to 88 °C	FC(F)Oc1cccc(-c2ccc(Cl)nn2)c1
128 to 130 °C	O=C(O)c1ccc(Oc2ccc(Cl)cc2)c(F)c1
162 to 164 °C	Cc1ccc(C)c(NC(=S)NN)c1
107 to 109 °C	CSCC(=O)Nc1ccc(O)cc1
62 to 64 °C	Cc1ccccc1COc1c(C)cc(C=O)cc1C
233 to 235 °C	NNc1cc(C(F)(F)F)nc(-c2ccncc2)n1
134 to 136 °C	CC(NC(=O)CCl)c1ccc2c(c1)CCCC2 (stereo not given)
210 to 212 °C	Cc1nc(-c2ccc(O)cc2)cs1
169 to 171 °C	O=C1CC(=O)CC2(CCCCC2)C1

melting point	Structure (SMILES)
286 to 288 °C	Oc1ccnc2cc(Br)ccc12
39 to 41 °C	COc1ncc(Br)cc1CC#N
166 to 168 °C	Nc1ccc(S(N)(=O)=O)cc1F
62 to 64 °C	CC(C)n1cnc(S(=O)(=O)Cl)c1
180 to 182 °C	O=C(O)c1sccc1S(=O)(=O)Nc1ccc(F)cc1
135 to 137 °C	O=C(CCl)Nc1nc(-c2ccccc2Cl)c(-c2ccccc2Cl)s1
104 to 106 °C	NS(=O)(=O)Cc1ccccc1Cl
191 to 193 °C	O=C(O)c1ccn(-c2ccc(Cl)c(Cl)c2)n1
180 to 182 °C	O=C(O)CCCc1ccc2c(c1)CC(=O)N2
301 to 303 °C	CC1CCCC(C(N)C(=O)O)C1 (stereo not given)
170 to 172 °C	CC1Cc2ccccc2N1S(=O)(=O)c1cccc(C(=O)O)c1 (stereo not given)
126 to 128 °C	CCc1ccc(NC(=O)c2nnc(CCl)s2)cc1
87 to 89 °C	CC(=O)c1cnn(-c2ccc(F)cc2)c1C
169 to 171 °C	O=C(O)c1nnn(-c2cccc(C(F)(F)F)c2)c1C1CC1
189 to 191 °C	Cc1c(Cl)cccc1Nc1nnc(S)s1
51 to 53 °C	Cc1cc(CO)nc(N2CCCCC2)n1
139 to 141 °C	CCCCc1nnc(N)o1
224 to 226 °C	CCOc1ccccc1-c1cc(C(=O)O)n[nH]1
211 to 213 °C	COc1cc(C=CC(=O)O)ccc1F
159 to 161 °C	Cn1ccc(NC(=O)CC#N)n1
94 to 96 °C	CC(C)(C(=O)O)c1ccc(Cl)c(Cl)c1
192 to 194 °C	CC1(c2ccc3c(c2)OCCCO3)NC(=O)NC1=O (stereo not given)
74 to 76 °C	CCC(=O)N1CSCC1C(=O)O (stereo not given)
106 to 108 °C	COc1ccc(NC(C)=O)cc1N

melting point	Structure (SMILES)
64 to 66 °C	O=C1NC2CCCCCCC12 (stereo not given)
152 to 154 °C	COc1cc(-n2cccc2)c(Cl)cc1C(=O)O
207 to 209 °C	O=S(=O)(c1c[nH]c2ncccc12)N1CCNCC1
121 to 123 °C	COC(=O)c1ccc(Sc2ccc(Cl)cn2)c(N)c1
156 to 158 °C	O=C1NC(=O)C(c2ccccc2OC(F)(F)F)N1 (stereo not given)
86 to 88 °C	COC(=O)c1ccccc1NC(=O)OCC(F)(F)F
135 to 137 °C	Nc1cc(C(=O)N2CCCCC2)ccc1Cl
159 to 161 °C	CN(C)S(=O)(=O)c1cc(C(=O)O)n(C)c1
224 to 226 °C	CC(C)c1noc2nc(-c3ccco3)cc(C(=O)O)c12
274 to 276 °C	O=C1Nc2c(F)ccc(Br)c2C1=O
158 to 160 °C	Cc1cccc(C=C(C(=O)O)c2cccs2)c1
185 to 187 °C	Clc1ccc(-n2ccnc2)nn1
191 to 193 °C	COc1ccc(Cc2nnn[nH]2)cc1F
155 to 157 °C	CC(=O)Nc1ccc(Br)cc1N
394 to 396 °C	CC(N)c1ccc2[nH]c(=O)[nH]c2c1 (stereo not given)
77 to 79 °C	Brc1ncn2ccccc12
233 to 235 °C	O=C(O)c1ccccc1SCc1ccc(Br)cc1
152 to 154 °C	COc1ccc(Cc2cnc(NC(=O)CCl)s2)cc1
69 to 71 °C	O=C(CO)N1CCNCC1
115 to 117 °C	O=S1(=O)CC(O)C(NCCO)C1 (stereo not given)
224 to 226 °C	Cc1ccc(-n2nc(C(=O)O)c3c2CCC3)cc1
150 to 152 °C	Cc1cc(C(=O)CC#N)c(C)n1CC(F)(F)F
256 to 258 °C	Nc1cnc(Br)cc1C(=O)O
187 to 189 °C	Cc1n[nH]c(C)c1S(=O)(=O)N1CCN(C)CC1

melting point	Structure (SMILES)
70 to 80 °C	O=C(O)CSCc1cccc(Br)c1
109 to 111 °C	CC(C)CNC(=O)c1ccccc1N
99 to 101 °C	CCN(CC)S(=O)(=O)c1ccc(N)cc1
31 to 33 °C	CCCOc1c(Cl)cc(C#N)cc1OC
81 to 83 °C	OCc1ccc(O)c(F)c1
226 to 228 °C	COc1ccc(C(=O)O)cc1-c1ccccn1
103 to 105 °C	C=CCN(c1ccccc1)S(=O)(=O)c1cccc(C(=O)O)c1
184 to 186 °C	Cc1cc(Br)cc(C)c1C(=O)O
49 to 51 °C	Cc1ccc2c(C)cc(Cl)nc2c1
63 to 65 °C	COC(=O)c1ccc(Cl)cc1S(=O)(=O)Cl
68 to 72 °C	COC(=O)c1ccccc1-c1ccc(C=O)o1
112 to 114 °C	COCCNC(=O)c1ccc(Cl)nc1
39 to 41 °C	ClCc1ncc(-c2ccccc2)s1
252 to 254 °C	O=C(O)c1ccc(-n2cccc2)c(F)c1
212 to 214 °C	O=C(O)CCC1NC(=O)N(c2ccc(Cl)cc2)C1=O (stereo not given)
141 to 143 °C	O=C(COc1cccc2ccccc12)N1CCNCC1
202 to 204 °C	Cn1cc(S(N)(=O)=O)cc1C(=O)O
119 to 121 °C	CC(=O)NCC(O)c1ccccc1 (stereo not given)
107 to 109 °C	NNC(=O)Nc1cccc(Cl)c1
264 to 266 °C	O=C(O)c1cccc(NC(=O)C2CC2)c1
148 to 150 °C	CCc1c(C)nc2ccccc2c1N
107 to 109 °C	O=C(O)CS(=O)(=O)Cc1cccs1
212 to 214 °C	O=C(O)c1c[nH]cc1-c1ccccc1
88 to 90 °C	CCOC(C)C(N)=NO (stereo not given)

melting point	Structure (SMILES)
117 to 119 °C	Cn1ccnc1Sc1ccc(N)cc1
96 to 98 °C	O=C(c1ccccn1)c1cc2ccccc2o1
107 to 109 °C	Cc1nn(C)c2ncc(C=O)cc12
66 to 68 °C	O=C(CCl)NCc1ccccc1OC(F)(F)F
152 to 154 °C	Nc1ccc2cccc(Br)c2n1
145 to 147 °C	CC(O)C(NC(=O)C1CCCC1)C(=O)O (stereo not given)
107 to 109 °C	CC(Cl)C(=O)Nc1ccc(Cl)cc1C(F)(F)F (stereo not given)
119 to 121 °C	CC(C)(C)n1nc(C(=O)O)cc1C1CC1
170 to 172 °C	COCCNc1nc2ccccc2[nH]1
110 to 112 °C	Cc1nn(C)c2c1NCCS2(=O)=O
88 to 90 °C	CN(C)CCNS(=O)(=O)c1ccc(Cl)c([N+](=O)[O-])c1
117 to 119 °C	Cc1cc2sc(N)nc2s1
107 to 109 °C	COc1ccccc1NC(=O)C(Br)C(C)C (stereo not given)
71 to 73 °C	Fc1ccc2c(Cl)ccnc2c1
309 to 311 °C	Nc1ccc(-c2c3c(=O)[nH][nH]c(=O)c3c3n2CCC3)cc1
62 to 64 °C	N#CCC(=O)c1ccc(Cl)cc1Cl
158 to 160 °C	O=C(Nc1ccc(Cl)cn1)OCC(F)(F)F
147 to 149 °C	CC(C)C(NC(=O)CCc1ccccc1)C(=O)O (stereo not given)
138 to 140 °C	Nc1cnc2ccccc2n1
107 to 109 °C	CCc1nnnn1-c1ccccc1N
119 to 121 °C	O=C(CC(=O)NCc1ccccc1)NCc1ccccc1
39 to 41 °C	O=[N+]([O-])c1ccc(Cn2ccnc2)cc1
150 to 152 °C	N#Cc1ccsc1NC(=O)CCCl
86 to 88 °C	N#Cc1cccc(Oc2ccc(Cl)cc2)n1

melting point	Structure (SMILES)
126 to 128 °C	O=C(O)Cc1ccc(Cl)cc1Br
181 to 183 °C	O=C(O)c1c(Cl)nc2sccn12
149 to 151 °C	CCOc1ccc(NC(=O)CCl)cc1
129 to 131 °C	CN(C)C=C(C#N)S(C)(=O)=O
160 to 162 °C	Cc1n[nH]c(N)c1C#N
164 to 166 °C	ClCc1ccc(-c2nc3cc(Cl)ccc3s2)cc1
87 to 90 °C	N#CCC(=O)NC1CC1
359 to 361 °C	NC(=O)c1ccc2c(N)ncnc2c1
202 to 204 °C	NC(=O)c1ccc(S(N)(=O)=O)c(N)c1
179 to 183 °C	O=C(O)/C(=C\c1ccccc1)c1ccc(Cl)cc1
267 to 269 °C	O=C1CCCc2cc(C(=O)O)ccc2N1
185 to 187 °C	NC(=O)NC(=O)OCCCl
146 to 148 °C	Cc1ccc2c(c1)NC(=O)C(C)O2 (stereo not given)
59 to 61 °C	O=S(=O)(Cl)C1=Cc2ccccc2CC1
166 to 168 °C	Clc1ncnc2ccc(Br)cc12
196 to 198 °C	Nc1ccc(Oc2ccc(S(N)(=O)=O)cc2)cc1
69 to 71 °C	Cc1cc(C#N)ccc1N1CC2CCC1C2 (stereo not given)
141 to 143 °C	Fc1ccc(-c2n[nH]cc2Br)cc1
153 to 155 °C	COc1ccc(NS(=O)(=O)Cc2ccc(N)cc2)cc1
113 to 115 °C	O=C(O)C1CCN(c2cccc(Cl)c2)C1=O (stereo not given)

Structure (SMILES)	melting point
CN1CCN(S(=O)(=O)c2ccc(Cl)nc2)CC1	129 to 131 °C
O=C(CCl)NCCc1cccs1	< 17 °C
CC(N)Cn1cnc2c(cnn2C)c1=O (stereo not given)	148 to 150 °C
N#Cc1ccc(S(N)(=O)=O)cc1Cl	157 to 159 °C
CCCCn1nnnc1CCl	< 17 °C

Reference: a melting point compilation (Tetko et al.)
